system: HBV (hepatitis B virus) in HepG2.2.15 cells; assay: Cell-based anti-viral activity assay (HBV DNA in supernatant by quantitative PCR); settings: 120 h, anti-HBV activity, HepG2.2.15 cells, 5 days, read-out: EC50 (HepG2.2.15)
Protocol: Cell-Based Anti-Viral Activity Assay
The Invention determined the anti-HBV (hepatitis B virus) activity of compounds in HepG2.2.15 cells (Table 1).
HepG2.2.15 is a cell line stably transfected with the HBV genome. HepG2.2.15 cells were cultured in DMEM (1X) with 10% fetal bovine serum (Corning), 100 U penicillin (Gibico), 100 μg/mL streptomycin (Gibico), 250 μg/mL geneticin (Gibco) and GlutaMAXTM-I medium (Invitrogen).
HepG2.2.15 cells were seeded into 96-well plates (4×10^4 cells in 100 μL of medium per well) and incubated overnight at 37° C. The test compounds were weighed and prepared as 10 mM stock solution with DMSO. The stock solutions of the compounds were diluted by a gradient of 3.16 times with DMSO, and then diluted by a gradient of 3.16 times with medium for 50 times. Finally, the diluted compound solutions were added to the cell plate with a total volume of 200 μL and the final DMSO concentration was 1%. The 96-well culture plates loaded with drugs were transferred to an incubator at 37° C. for 5 days. […] nucleic acid releasing agent was added to 96-well PCR reaction plate, and 2 μL of cell supernatant or HBV quantitative standards were added to the corresponding Wells. Centrifuged the plates to fully mix, and incubated at room temperature for 10 min to fully release nucleic acid. Quantified HBV DNA content by fluorescent quantitative PCR (CFX Connect Real-Time System) using Sanxiang Bio hepatitis B virus fluorescent quantitative diagnostic kit.
The standard curve was established by taking the logarithm of the copy number (IU/ml) of the HBV standard sample (log 10) as the abscordinate and the corresponding CT value as the ordinate. The copy number of the sample was calculated according to the corresponding CT of the positive sample and the standard curve, and the percentage of inhibition rate was calculated as follows: • % Inhibition=100-100*(sample HBV copy number−high concentration reference compound column HBV copy number)/DMSO column HBV copy number−high concentration reference compound column HBV copy number).

Row | Structure (SMILES) | EC50 [nM]
1 | CCOC(=O)C1=C(CN2CCN3C(=O)N(C45CC(COC)(C4)C5)C[C@@H]3C2)NC(c2nccs2)=N[C@H]1c1cccc(F)c1C [Compound 3, Ethyl (S)-4-(3-Fluoro-2-Methylphenyl)-6-(((S)-2-(3-(Methoxymethyl)Bicyclo[1.1.1]Pentan-1-Yl)-3-Oxohexahydroimidazo[1,5-a]Pyrazin-7(1H)-Yl)Methyl)-2-(Thiazol-2-Yl)-1,4-Dihydropyrimidine-5-Carboxylate] | 4
2 | CCOC(=O)C1=C(CN2CCN3C(=O)N(C45CC(CC(C)(C)C(=O)O)(C4)C5)C[C@@H]3C2)NC(c2nccs2)=N[C@H]1c1cccc(F)c1C [Compound 4] | 8
3 | CCOC(=O)C1=C(CN2CCN3C(=O)N(C45CC(C(=O)N6CCCC6)(C4)C5)C[C@@H]3C2)NC(c2nccs2)=N[C@H]1c1cccc(F)c1C [Compound 6, Ethyl (S)-4-(3-Fluoro-2-Methylphenyl)-6-(((S)-3-Oxo-2-(3-(Pyrrolidine-1-Carbonyl)Bicyclo[1.1.1]Pentan-1-Yl)Hexahydroimidazo[1,5-a]Pyrazin-7(1H)-Yl)Methyl)-2-(Thiazol-2-Yl)-1,4-Dihydropyrimidine-5-Carboxylate] | 8
4 | CCOC(=O)C1=C(CN2CCN3C(=O)N(C45CC(C(N)=O)(C4)C5)C[C@@H]3C2)NC(c2nccs2)=N[C@H]1c1cccc(F)c1C [Compound 7, ethyl (S)-6-(((S)-2-(3-Carbamoylbicyclo[1.1.1]Pentan-1-Yl)-3-Oxohexahydroimidazo[1,5-a]Pyrazin-7(1H)-Yl)Methyl)-4-(3-Fluoro-2-Methylphenyl)-2-(Thiazol-2-Yl)-1,4-Dihydropyrimidine-5-Carboxylate] | 7
5 | CCOC(=O)C1=C(CN2CCN3C(=O)N(C45CC(CS(C)(=O)=O)(C4)C5)C[C@@H]3C2)NC(c2nccs2)=N[C@H]1c1cccc(F)c1C [Compound 8, Ethyl (S)-4-(3-Fluoro-2-Methylphenyl)-6-(((S)-2-(3-((Methylsulfonyl)Methyl)Bicyclo[1.1.1]Pentan-1-Yl)-3-Oxohexahydroimidazo[1,5-a]Pyrazin-7(1H)-Yl)Methyl)-2-(Thiazol-2-Yl)-1,4-Dihydropyrimidine-5-Carboxylate] | 4
6 | CCOC(=O)C1=C(CN2CCN3C(=O)N(C45CC(NS(C)(=O)=O)(C4)C5)C[C@@H]3C2)NC(c2nccs2)=N[C@H]1c1cccc(F)c1C [Compound 9, Ethyl (S)-4-(3-Fluoro-2-Methylphenyl)-6-(((S)-2-(3-(Methylsulfonamido)Bicyclo[1.1.1]Pentan-1-Yl)-3-Oxohexahydroimidazo[1,5-a]Pyrazin-7(1H)-Yl)Methyl)-2-(Thiazol-2-Yl)-1,4-Dihydropyrimidine-5-Carboxylate] | 4
7 | CCOC(=O)C1=C(CN2CCN3C(=O)N(C45CC(NC(C)=O)(C4)C5)C[C@@H]3C2)NC(c2nccs2)=N[C@H]1c1cccc(F)c1C [Compound 10, Ethyl (S)-6-(((S)-2-(3-Acetamidobicyclo[1.1.1]Pentan-1-Yl)-3-Oxohexahydroimidazo[1,5-a]Pyrazin-7(1H)-Yl)Methyl)-4-(3-Fluoro-2-Methylphenyl)-2-(Thiazol-2-Yl)-1,4-Dihydropyrimidine-5-Carboxylate] | 8
8 | CCOC(=O)C1=C(CN2CCN3C(=O)N(C45CC(N(C)S(C)(=O)=O)(C4)C5)C[C@@H]3C2)NC(c2nccs2)=N[C@H]1c1cccc(F)c1C [Compound 11, Ethyl (S)-4-(3-Fluoro-2-Methylphenyl)-6-(((S)-2-(3-(N-Methylmethylsulfonamido)Bicyclo[1.1.1]Pentan-1-Yl)-3-Oxohexahydroimidazo[1,5-a]Pyrazin-7(1H)-Yl)Methyl)-2-(Thiazol-2-Yl)-1,4-Dihydropyrimidine-5-Carboxylate] | 4
9 | CCOC(=O)C1=C(CN2CCN3C(=O)N(C45CC(N(C)C(C)=O)(C4)C5)C[C@@H]3C2)NC(c2nccs2)=N[C@H]1c1cccc(F)c1C [Compound 12, Ethyl (S)-4-(3-Fluoro-2-Methylphenyl)-6-(((S)-2-(3-(N-Methylacetamido)Bicyclo[1.1.1]Pentan-1-Yl)-3-Oxohexahydroimidazo[1,5-a]Pyrazin-7(1H)-Yl)Methyl)-2-(Thiazol-2-Yl)-1,4-Dihydropyrimidine-5-Carboxylate] | 3
10 | CCOC(=O)C1=C(CN2CCN3C(=O)N(C45CC(N6CCCC6=O)(C4)C5)C[C@@H]3C2)NC(c2nccs2)=N[C@H]1c1cccc(F)c1C [Compound 13, Ethyl (S)-4-(3-Fluoro-2-Methylphenyl)-6-(((S)-3-Oxo-2-(3-(2-Oxopyrrolidin-1-Yl)Bicyclo[1.1.1]Pentan-1-Yl) Hexahydroimidazo[1,5-a]Pyrazin-7(1H)-Yl)Methyl)-2-(Thiazol-2-Yl)-1,4-Dihydropyrimidine-5-Carboxylate] | 8
11 | CCOC(=O)C1=C(CN2CCN3C(=O)N(C45CC(CNS(C)(=O)=O)(C4)C5)C[C@@H]3C2)NC(c2nccs2)=N[C@H]1c1cccc(F)c1C [Compound 14, Ethyl (S)-4-(3-Fluoro-2-Methylphenyl)-6-(((S)-2-(3-(Methylsulfonamidomethyl)Bicyclo[1.1.1]Pentan-1-Yl)-3-Oxohexahydroimidazo[1,5-a]Pyrazin-7(1H)-Yl)Methyl)-2-(Thiazol-2-Yl)-1,4-Dihydropyrimidine-5-Carboxylate] | 4
12 | CCOC(=O)C1=C(CN2CCN3C(=O)N(C45CC(CNC(C)=O)(C4)C5)C[C@@H]3C2)NC(c2nccs2)=N[C@H]1c1cccc(F)c1C [Compound 15, ethyl (S)-6-(((S)-2-(3-(Acetamidomethyl)Bicyclo[1.1.1]Pentan-1-Yl)-3-Oxohexahydroimidazo[1,5-a]Pyrazin-7(1H)-Yl)Methyl)-4-(3-Fluoro-2-Methylphenyl)-2-(Thiazol-2-Yl)-1,4-Dihydropyrimidine-5-Carboxylate] | 4
13 | CCOC(=O)C1=C(CN2CCN3C(=O)N(C45CC(N6CCCS6(=O)=O)(C4)C5)C[C@@H]3C2)NC(c2nccs2)=N[C@H]1c1cccc(F)c1C [Compound 19, Ethyl (S)-6-(((S)-2-(3-(1,1-Dioxidoisothiazolidin-2-Yl)Bicyclo[1.1.1]Pentan-1-Yl)-3-Oxohexahydroimidazo[1,5-a]Pyrazin-7(1H)-Yl)Methyl)-4-(3-Fluoro-2-Methylphenyl)-2-(Thiazol-2-Yl)-1,4-Dihydropyrimidine-5-Carboxylate] | 3
14 | CCOC(=O)C1=C(CN2CCN3C(=O)N(C45CC(CC#N)(C4)C5)C[C@@H]3C2)NC(c2nccs2)=N[C@H]1c1cccc(F)c1C [Compound 20, Ethyl (S)-6-(((S)-2-(3-(Cyanomethyl)Bicyclo[1.1.1]Pentan-1-Yl)-3-Oxohexahydroimidazo[1,5-a]Pyrazin-7 (1H)-Yl)Methyl)-4-(3-Fluoro-2-Methylphenyl)-2-(Thiazol-2-Yl)-1,4-Dihydropyrimidine-5-Carboxylate] | 3
15 | CCOC(=O)C1=C(CN2CCN3C(=O)N(C45CC(NS(N)(=O)=O)(C4)C5)C[C@@H]3C2)NC(c2nccs2)=N[C@H]1c1cccc(F)c1C [Compound 21, Ethyl (S)-4-(3-Fluoro-2-Methylphenyl)-6-(((S)-3-Oxo-2-(3-(Sulfamoylamino)Bicyclo[1.1.1]Pentan-1-Yl)Hexahydroimidazo[1,5-a]Pyrazin-7(1H)-Yl)Methyl)-2-(Thiazol-2-Yl)-1,4-Dihydropyrimidine-5-Carboxylate] | 15
16 | CCOC(=O)C1=C(CN2CCN3C(=O)N(C45CC(CNS(=O)(=O)C6CC6)(C4)C5)C[C@@H]3C2)NC(c2nccs2)=N[C@H]1c1cccc(F)c1C [Compound 23] | 4
17 | CCOC(=O)C1=C(CN2CCN3C(=O)N(C45CC(CNS(N)(=O)=O)(C4)C5)C[C@@H]3C2)NC(c2nccs2)=N[C@H]1c1cccc(F)c1C [Compound 24, Ethyl (S)-4-(3-Fluoro-2-Methylphenyl)-6-(((S)-3-Oxo-2-(3-((Sulfamoylamino)Methyl)Bicyclo[1.1.1]Pentan-1-Yl)Hexahydroimidazo[1,5-a]Pyrazin-7(1H)-Yl)Methyl)-2-(Thiazol-2-Yl)-1,4-Dihydropyrimidine-5-Carboxylate] | 9
18 | CCOC(=O)C1=C(CN2CCN3C(=O)N(C45CC(CN6CCCC6=O)(C4)C5)C[C@@H]3C2)NC(c2nccs2)=N[C@H]1c1cccc(F)c1C [Compound 25, Ethyl (S)-4-(3-Fluoro-2-Methylphenyl)-6-(((S)-3-Oxo-2-(3-((2-Oxopyrrolidin-1-Yl)Methyl)Bicyclo[1.1.1]Pentan-1-Yl)Hexahydroimidazo[1,5-a]Pyrazin-7(1H)-Yl)Methyl)-2-(Thiazol-2-Yl)-1,4-Dihydropyrimidine-5-Carboxylate] | 2

same assay, conditions: HepG2.2.15, 120 h, read-out: EC50 (HepG2.2.15, nM)

Row | Structure (SMILES) | EC50 [nM]
19 | CCOC(=O)C1=C(CN2CCN3C(=O)N(C45CC(CP(=O)(OCC)OCC)(C4)C5)C[C@@H]3C2)NC(c2nccs2)=N[C@H]1c1cccc(F)c1C [Compound 16, Ethyl (S)-6-(((S)-2-(3-((Diethoxyphosphoryl)Methyl)Bicyclo[1.1.1]Pentan-1-Yl)-3-Oxohexahydroimidazo[1,5-a]Pyrazin-7(1H)-Yl)Methyl)-4-(3-Fluoro-2-Methylphenyl)-2-(Thiazol-2-Yl)-1,4-Dihydropyrimidine-5-Carboxylate] | 9

From patent publication US20240166649A1, “DIHYDROPYRIMIDINE COMPOUND, PREPARATION METHOD THEREFOR AND APPLICATION THEREOF” (Shanghai Visonpharma Co., Ltd., priority 2021, published 2024)
